ChEMBL document CHEMBL3352227, “Synthesis, antimycobacterial and antibacterial evaluation of l-[(1R, 2S)-2-fluorocyclopropyl]fluoroquinolone derivatives containing an oxime functional moiety” (Eur J Med Chem, 2014)

Tests used:
Format in all cases: functional
[1] = system: Escherichia coli; experiment: Antibacterial activity against extended-spectrum beta-lactamase producing Escherichia coli 12-14 after 18 to 24 hrs by standard twofold serial dilution method
[2] = system: Klebsiella pneumoniae; experiment: Antibacterial activity against Klebsiella pneumoniae 12-2 after 18 to 24 hrs by standard twofold serial dilution method
[3] = system: Staphylococcus aureus; experiment: Antibacterial activity against methicillin-sensitive Staphylococcus aureus 12-2 after 18 to 24 hrs by standard twofold serial dilution method
[4] = system: Mycobacterium tuberculosis; experiment: Antimycobacterial activity against Mycobacterium tuberculosis H37Rv ATCC 27294 by MABA method
[5] = system: Staphylococcus aureus; experiment: Antibacterial activity against methicillin-sensitive Staphylococcus aureus 12-5 after 18 to 24 hrs by standard twofold serial dilution method
[6] = system: Escherichia coli; experiment: Antibacterial activity against extended-spectrum beta-lactamase producing Escherichia coli 12-3 after 18 to 24 hrs by standard twofold serial dilution method
[7] = system: Escherichia coli; experiment: Antibacterial activity against Escherichia coli ATCC 25922 after 18 to 24 hrs by standard twofold serial dilution method
[8] = system: Staphylococcus aureus; experiment: Antibacterial activity against methicillin-resistant Staphylococcus aureus 12-2 after 18 to 24 hrs by standard twofold serial dilution method
[9] = system: Klebsiella pneumoniae; experiment: Antibacterial activity against extended-spectrum beta-lactamase producin Klebsiella pneumoniae 12-14 after 18 to 24 hrs by standard twofold serial dilution method
[10] = system: Klebsiella pneumoniae; experiment: Antibacterial activity against Klebsiella pneumoniae 12-4 after 18 to 24 hrs by standard twofold serial dilution method
[11] = system: Staphylococcus epidermidis; experiment: Antibacterial activity against methicillin-sensitive Staphylococcus epidermidis 12-3 after 18 to 24 hrs by standard twofold serial dilution method
[12] = system: Pseudomonas aeruginosa; experiment: Antibacterial activity against Pseudomonas aeruginosa 12-14 after 18 to 24 hrs by standard twofold serial dilution method
[13] = system: Streptococcus pneumoniae; experiment: Antibacterial activity against Streptococcus pneumoniae 12-18 after 18 to 24 hrs by standard twofold serial dilution method
[14] = system: Staphylococcus aureus; experiment: Antibacterial activity against methicillin-resistant Staphylococcus aureus 12-5 after 18 to 24 hrs by standard twofold serial dilution method
[15] = system: Staphylococcus epidermidis; experiment: Antibacterial activity against methicillin-sensitive Staphylococcus epidermidis 12-1 after 18 to 24 hrs by standard twofold serial dilution method
[16] = system: Escherichia coli; experiment: Antibacterial activity against extended-spectrum beta-lactamase producing Escherichia coli 12-15 after 18 to 24 hrs by standard twofold serial dilution method
[17] = system: Staphylococcus aureus; experiment: Antibacterial activity against methicillin-resistant Staphylococcus aureus 12-4 after 18 to 24 hrs by standard twofold serial dilution method
[18] = system: Staphylococcus aureus; experiment: Antibacterial activity against methicillin-sensitive Staphylococcus aureus 12-4 after 18 to 24 hrs by standard twofold serial dilution method
[19] = system: Staphylococcus epidermidis; experiment: Antibacterial activity against methicillin-resistant Staphylococcus epidermidis 12-1 after 18 to 24 hrs by standard twofold serial dilution method
[20] = system: Klebsiella pneumoniae; experiment: Antibacterial activity against extended-spectrum beta-lactamase producin Klebsiella pneumoniae 12-4 after 18 to 24 hrs by standard twofold serial dilution method
[21] = system: Klebsiella pneumoniae; experiment: Antibacterial activity against extended-spectrum beta-lactamase producin Klebsiella pneumoniae 12-3 after 18 to 24 hrs by standard twofold serial dilution method
[22] = system: Escherichia coli; experiment: Antibacterial activity against Escherichia coli 12-1 after 18 to 24 hrs by standard twofold serial dilution method
[23] = system: Staphylococcus epidermidis; experiment: Antibacterial activity against methicillin-sensitive Staphylococcus epidermidis 12-6 after 18 to 24 hrs by standard twofold serial dilution method
[24] = system: Pseudomonas aeruginosa; experiment: Antibacterial activity against Pseudomonas aeruginosa 12-12 after 18 to 24 hrs by standard twofold serial dilution method
[25] = system: Klebsiella pneumoniae; experiment: Antibacterial activity against extended-spectrum beta-lactamase producin Klebsiella pneumoniae 12-7 after 18 to 24 hrs by standard twofold serial dilution method
[26] = system: Escherichia coli; experiment: Antibacterial activity against extended-spectrum beta-lactamase producing Escherichia coli 12-2 after 18 to 24 hrs by standard twofold serial dilution method
[27] = system: Streptococcus pneumoniae; experiment: Antibacterial activity against Streptococcus pneumoniae ATCC 49619 after 18 to 24 hrs by standard twofold serial dilution method
[28] = system: Klebsiella pneumoniae; experiment: Antibacterial activity against Klebsiella pneumoniae 12-1 after 18 to 24 hrs by standard twofold serial dilution method
[29] = system: Staphylococcus aureus; experiment: Antibacterial activity against methicillin-sensitive Staphylococcus aureus 12-1 after 18 to 24 hrs by standard twofold serial dilution method
[30] = system: Staphylococcus aureus; experiment: Antibacterial activity against Staphylococcus aureus ATCC 25923 after 18 to 24 hrs by standard twofold serial dilution method
[31] = system: Staphylococcus epidermidis; experiment: Antibacterial activity against methicillin-sensitive Staphylococcus epidermidis 12-8 after 18 to 24 hrs by standard twofold serial dilution method
[32] = system: Staphylococcus epidermidis; experiment: Antibacterial activity against methicillin-resistant Staphylococcus epidermidis 12-6 after 18 to 24 hrs by standard twofold serial dilution method

Measured: MIC

NC[C@@H]1/C(=N\OCc2ccccc2)CN1c1cc2c(cc1F)c(=O)c(C(=O)O)cn2[C@@H]1C[C@@H]1F
32 µg/mL: [12] | [19]
2 µg/mL: [11] | [24] | [25] | [31]
128 µg/mL: [1] | [9] | [14] | [21]
> 128 µg/mL: [8] | [16] | [17] | [26]
0.25 µg/mL: [7] | [30]
16 µg/mL: [6] | [20]
0.5 µg/mL: [2] | [10] | [27] | [28]
8 µg/mL: [4] | [13] | [22] | [32]
1 µg/mL: all other assays above

CCO/N=C1/CN(c2cc3c(cc2F)c(=O)c(C(=O)O)cn3[C@@H]2C[C@@H]2F)[C@H]1CN
32 µg/mL: [9] | [12] | [17] | [21] | [26]
1 µg/mL: [13]
128 µg/mL: [16]
8 µg/mL: [6] | [20] | [32]
16 µg/mL: [1] | [8] | [14]
0.125 µg/mL: [5] | [15] | [22] | [23] | [29]
0.03 µg/mL: [7] | [30]
4 µg/mL: [19]
0.5 µg/mL: [11] | [24] | [25]
2 µg/mL: [4] | [31]
0.06 µg/mL: all other assays above
